≈ marks a conversion by molar mass, not a printed value.
Key:
[1] = target: Dihydroorotate dehydrogenase (quinone), mitochondrial (Homo sapiens, UniProt Q02127); test: Inhibition of human DHODH using dihydroorotate as substrate and CoQ10 as co-substrate preincubated for 30 mins followed by substrate addition by DCIP coupled microplate reader assay
A-375 = test: Antiproliferative activity against human A375 cells assessed as reduction in cell viability measured after 48 hrs by MTT assay; format: functional, cell-based; details: Homo sapiens, A-375, 48 h
K562 = test: Antiproliferative activity against human K562 cells assessed as reduction in cell viability measured after 48 hrs by MTT assay; format: functional, cell-based; details: Homo sapiens, K562, 48 h
HeLa = test: Antiproliferative activity against human HeLa cells assessed as reduction in cell viability measured after 48 hrs by MTT assay; format: functional, cell-based; details: Homo sapiens, HeLa, 48 h
NAMALVA = test: Antiproliferative activity against human NAMALWA cells assessed as reduction in cell viability measured after 48 hrs by MTT assay; format: functional, cell-based; details: Homo sapiens, NAMALVA, 48 h
A549 = test: Antiproliferative activity against human A549 cells assessed as reduction in cell viability measured after 48 hrs by MTT assay; format: functional, cell-based; details: Homo sapiens, A549, 48 h
Raji = test: Antiproliferative activity against human Raji cells assessed as reduction in cell viability measured after 48 hrs by MTT assay; format: functional, cell-based; details: Homo sapiens, Raji, 48 h
MCF7 = test: Antiproliferative activity against human MCF7 cells assessed as reduction in cell viability measured after 48 hrs by MTT assay; format: functional, cell-based; details: Homo sapiens, MCF7, 48 h
HCT-116 = test: Antiproliferative activity against human HCT116 cells assessed as reduction in cell viability measured after 48 hrs by MTT assay; format: functional, cell-based; details: Homo sapiens, HCT-116, 48 h
[2] = Solubility of the compound in PBS; format: physicochemical

Dihydroorotate dehydrogenase (quinone), mitochondrial, sequence (Q02127 whole entry): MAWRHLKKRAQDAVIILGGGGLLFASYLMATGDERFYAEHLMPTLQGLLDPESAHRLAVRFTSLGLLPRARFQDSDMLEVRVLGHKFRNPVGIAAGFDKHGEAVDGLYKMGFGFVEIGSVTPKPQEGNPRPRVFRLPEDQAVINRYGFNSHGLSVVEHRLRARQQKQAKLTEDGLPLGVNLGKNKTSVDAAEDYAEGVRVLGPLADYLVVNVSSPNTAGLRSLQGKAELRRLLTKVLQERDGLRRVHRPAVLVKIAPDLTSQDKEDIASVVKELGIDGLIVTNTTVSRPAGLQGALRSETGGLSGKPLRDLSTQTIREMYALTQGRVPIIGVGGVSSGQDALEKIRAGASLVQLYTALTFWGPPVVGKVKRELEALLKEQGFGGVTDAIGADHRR

O=C1c2ccccc2C(=O)c2c1nnn2-c1ccc2c(c1)OCO2
IC50 [1]: > 1000 nM

O=C1c2ccccc2C(=O)c2c1nnn2-c1ccc(-c2cncnc2)cc1
IC50 [1]: > 1000 nM

O=C1c2ccccc2C(=O)c2c1nnn2-c1cccc(O)c1
IC50 [1]: > 1000 nM

O=C1c2ccccc2C(=O)c2c1nnn2-c1ccnc(Cl)c1
IC50 [1]: > 1000 nM

Nc1ccccc1-c1ccc(-n2nnc3c2C(=O)c2ccccc2C3=O)cc1
IC50 [1]: 20 nM
IC50 (A-375): 1930 nM
IC50 (K562): 2160 nM
IC50 (HeLa): > 10000 nM
IC50 (NAMALVA): 5050 nM
IC50 (A549): > 10000 nM
IC50 (Raji): 3840 nM
IC50 (MCF7): > 10000 nM
IC50 (HCT-116): 2300 nM

OC1c2ccccc2C(O)c2c1nnn2-c1cc(F)c(-c2ccccc2F)c(F)c1 (stereo unspecified)
IC50 [1]: 5.1 nM
solubility [2]: < 10 µg/mL
IC50 (A-375): 160 nM
IC50 (K562): > 10000 nM
IC50 (HeLa): > 10000 nM
IC50 (NAMALVA): > 10000 nM
IC50 (A549): > 10000 nM
IC50 (Raji): > 10000 nM
IC50 (MCF7): > 10000 nM
IC50 (HCT-116): 580 nM

O=C1c2ccccc2C(=O)c2c1nnn2-c1ccc(-c2ccccc2F)cc1
IC50 [1]: 4.5 nM
solubility [2]: < 10 µg/mL
IC50 (A-375): 2980 nM
IC50 (K562): 1870 nM
IC50 (HeLa): > 10000 nM
IC50 (NAMALVA): 2790 nM
IC50 (A549): > 10000 nM
IC50 (Raji): 2230 nM
IC50 (MCF7): > 10000 nM
IC50 (HCT-116): 3330 nM

O=C1c2ccccc2C(=O)c2c1nnn2-c1ccc(N2CCOCC2)nc1
IC50 [1]: > 1000 nM

O=C1c2ccccc2C(=O)c2c1nnn2-c1cc(F)c(-c2ccc(F)cc2)c(F)c1
IC50 [1]: 6.9 nM
IC50 (A-375): 1580 nM
IC50 (K562): > 10000 nM
IC50 (HeLa): > 10000 nM
IC50 (NAMALVA): > 10000 nM
IC50 (A549): > 10000 nM
IC50 (Raji): > 10000 nM
IC50 (MCF7): > 10000 nM
IC50 (HCT-116): 2250 nM

O=C1c2ccccc2C(=O)c2c1nnn2-c1ccncc1
IC50 [1]: > 1000 nM

COc1cc(-n2nnc3c2C(=O)c2ccccc2C3=O)ccc1-c1ccccc1
IC50 [1]: 4.1 nM
solubility [2]: 15.4 µg/mL (≈ 40.4 µM)
IC50 (A-375): 10 nM
IC50 (K562): 210 nM
IC50 (HeLa): > 10000 nM
IC50 (NAMALVA): > 10000 nM
IC50 (A549): > 10000 nM
IC50 (Raji): 790 nM
IC50 (MCF7): > 10000 nM
IC50 (HCT-116): 180 nM

O=C1c2ccccc2C(=O)c2c1nnn2-c1ccc(Cl)nc1
IC50 [1]: > 1000 nM

O=C1c2ccccc2C(=O)c2c1nnn2-c1cc(F)c(-c2cccc(CO)c2F)c(F)c1
IC50 [1]: 1.2 nM
solubility [2]: 17.6 µg/mL (≈ 40.4 µM)
IC50 (A-375): 30 nM
IC50 (K562): > 10000 nM
IC50 (HeLa): > 10000 nM
IC50 (NAMALVA): > 10000 nM
IC50 (A549): > 10000 nM
IC50 (Raji): > 10000 nM
IC50 (MCF7): > 10000 nM
IC50 (HCT-116): 150 nM

COc1ccccc1-n1nnc2c1C(=O)c1ccccc1C2=O
IC50 [1]: > 1000 nM

O=C1c2ccccc2C(=O)c2c1nnn2-c1cccc(I)c1
IC50 [1]: > 1000 nM

N#Cc1ccccc1-n1nnc2c1C(=O)c1ccccc1C2=O
IC50 [1]: > 1000 nM

COCc1cccc(-c2c(F)cc(-n3nnc4c3C(=O)c3ccccc3C4=O)cc2F)c1
IC50 [1]: 1.6 nM
solubility [2]: < 10 µg/mL
IC50 (A-375): 180 nM
IC50 (K562): > 10000 nM
IC50 (HeLa): > 10000 nM
IC50 (NAMALVA): > 10000 nM
IC50 (A549): > 10000 nM
IC50 (Raji): 1230 nM
IC50 (MCF7): > 10000 nM
IC50 (HCT-116): 1130 nM

COc1cccc(-c2ccc(-n3nnc4c3C(=O)c3ccccc3C4=O)cc2)c1
IC50 [1]: 100 nM

Fc1ccccc1-c1c(F)cc(-n2cc(-c3ccccc3)nn2)cc1F
IC50 [1]: > 1000 nM

O=C1c2ccccc2C(=O)c2c1nnn2-c1ccc(-c2ccncc2)cc1
IC50 [1]: > 1000 nM

Cc1cc(-n2nnc3c2C(=O)c2ccccc2C3=O)ccc1F
IC50 [1]: > 1000 nM

O=C1c2ccc(O)cc2C(=O)c2c1nnn2-c1cc(F)c(-c2ccccc2F)c(F)c1
IC50 [1]: > 1000 nM

CC(C)c1ccc(-c2ccc(-n3nnc4c3C(=O)c3ccccc3C4=O)c(F)c2)cc1
IC50 [1]: > 1000 nM

O=C1c2ccccc2C(=O)c2c1nnn2-c1ccccc1C(F)(F)F
IC50 [1]: > 1000 nM

COC(=O)c1cccc(-c2ccc(-n3nnc4c3C(=O)c3ccccc3C4=O)cc2)c1
IC50 [1]: 550 nM

O=C1c2ccccc2C(=O)c2c1nnn2-c1ccc(-c2cccc(O)c2)cc1
IC50 [1]: 21 nM
IC50 (A-375): > 10000 nM
IC50 (K562): 7090 nM
IC50 (HeLa): > 10000 nM
IC50 (NAMALVA): > 10000 nM
IC50 (A549): > 10000 nM
IC50 (Raji): 9040 nM
IC50 (MCF7): > 10000 nM
IC50 (HCT-116): > 10000 nM

O=C1c2ccccc2C(=O)c2c1nnn2-c1ccc(-c2ccccc2)cc1
IC50 [1]: 19 nM
IC50 (A-375): 5830 nM
IC50 (K562): > 10000 nM
IC50 (HeLa): > 10000 nM
IC50 (NAMALVA): 1870 nM
IC50 (A549): > 10000 nM
IC50 (Raji): 4610 nM
IC50 (MCF7): > 10000 nM
IC50 (HCT-116): 4230 nM

Nc1ccc(-c2ccc(-n3nnc4c3C(=O)c3ccccc3C4=O)cc2)cc1
IC50 [1]: 25 nM
IC50 (A-375): 1900 nM
IC50 (K562): 240 nM
IC50 (HeLa): > 10000 nM
IC50 (NAMALVA): > 10000 nM
IC50 (A549): > 10000 nM
IC50 (Raji): > 10000 nM
IC50 (MCF7): > 10000 nM
IC50 (HCT-116): > 10000 nM

COc1cc(-c2ccc(-n3nnc4c3C(=O)c3ccccc3C4=O)cc2)cc(OC)c1OC
IC50 [1]: > 1000 nM

O=C1CCCc2c1nnn2-c1cc(F)c(-c2ccccc2F)c(F)c1
IC50 [1]: > 1000 nM

COc1ccc2c(c1)C(=O)c1c(nnn1-c1cc(F)c(-c3ccccc3F)c(F)c1)C2=O
IC50 [1]: > 1000 nM

O=C1c2ccccc2C(=O)c2c1nnn2-c1cc(F)c(-c2cccc(F)c2)c(F)c1
IC50 [1]: 2.7 nM
solubility [2]: < 10 µg/mL
IC50 (A-375): 190 nM
IC50 (K562): > 10000 nM
IC50 (HeLa): > 10000 nM
IC50 (NAMALVA): > 10000 nM
IC50 (A549): > 10000 nM
IC50 (Raji): 1510 nM
IC50 (MCF7): > 10000 nM
IC50 (HCT-116): 550 nM

O=C1c2ccccc2C(=O)c2c1nnn2-c1ccc(-c2ccccc2O)cc1
IC50 [1]: 230 nM

CC1(C)CC(=O)c2nnn(-c3cc(F)c(-c4ccccc4F)c(F)c3)c2C1
IC50 [1]: > 1000 nM

O=C1c2cc(F)ccc2C(=O)c2c1nnn2-c1cc(F)c(-c2ccccc2F)c(F)c1
IC50 [1]: 98 nM

CC(C)C1CC(=O)c2nnn(-c3cc(F)c(-c4ccccc4F)c(F)c3)c2C1 (stereo unspecified)
IC50 [1]: 520 nM

O=C1c2ccccc2C(=O)c2c1nnn2-c1nc2ccccc2[nH]1
IC50 [1]: > 1000 nM

CC(C)c1ccc(-n2nnc3c2C(=O)c2ccccc2C3=O)cc1
IC50 [1]: 560 nM

O=C1c2ccccc2C(=O)c2c1nnn2-c1ccc(-c2cccc(F)c2)cc1
IC50 [1]: 56 nM

CC(C)c1ccc(-c2c(F)cc(-n3nnc4c3C(=O)c3ccccc3C4=O)cc2F)cc1
IC50 [1]: 76 nM

O=C1c2ccccc2C(=O)c2c1nnn2-c1ccc(-c2cccnc2)cc1
IC50 [1]: 422 nM

N#Cc1cccc(-n2nnc3c2C(=O)c2ccccc2C3=O)c1
IC50 [1]: > 1000 nM

CC(C)c1ccc(-c2cc(F)c(-n3nnc4c3C(=O)c3ccccc3C4=O)c(F)c2)cc1
IC50 [1]: > 1000 nM

Nc1cccc(-n2nnc3c2C(=O)c2ccccc2C3=O)c1
IC50 [1]: > 1000 nM

O=C1c2cc(O)ccc2C(=O)c2c1nnn2-c1cc(F)c(-c2ccccc2F)c(F)c1
IC50 [1]: > 1000 nM

O=C1c2ccccc2C(=O)c2c1nnn2-c1ccc(-c2cc(C(F)(F)F)cc(C(F)(F)F)c2)cc1
IC50 [1]: > 1000 nM

Cc1ccc(-n2nnc3c2C(=O)c2ccccc2C3=O)cc1C(F)(F)F
IC50 [1]: > 1000 nM

O=C1c2ccccc2C(=O)c2c1nnn2-c1ccc2ccccc2c1
IC50 [1]: > 1000 nM

Cc1cc(-c2ccc(-n3nnc4c3C(=O)c3ccccc3C4=O)cc2)ccn1
IC50 [1]: > 1000 nM

COc1ccc2c(c1)C(=O)c1nnn(-c3cc(F)c(-c4ccccc4F)c(F)c3)c1C2=O
IC50 [1]: > 1000 nM

O=C1c2ccc(F)cc2C(=O)c2c1nnn2-c1cc(F)c(-c2ccccc2F)c(F)c1
IC50 [1]: 152 nM

O=C(c1ccccc1)c1cn(-c2cc(F)c(-c3ccccc3F)c(F)c2)nn1
IC50 [1]: > 1000 nM

— ChEMBL document CHEMBL4616673 (J Med Chem, 2020)
